# Experimental data from patent publication US4323581A, “Method of treating carcinogenesis” (priority 1978, dated 1982).
# What was measured:
# chemical carcinogenesis = conditions: in vivo; cited from earlier work
# breast cancer = conditions: in vivo; cited from earlier work
# [1] = cited from earlier work; for toxicity at high dosage levels: higher mammals
# tracheal epithelium [2] = assay: Reversal of keratinized squamous metaplastic lesions of vitamin A deficiency in tracheal organ culture; format: cell-based; conditions: collected day 10; for % of Cultures with Respective Amounts of Squamous Metaplasia: Marked: marked = 10-40% squamous; for % of Cultures with Respective Amounts of Squamous Metaplasia: Mild: mild = 2-10% squamous; for % of Cultures with Respective Amounts of Squamous Metaplasia: Minimal: minimal = less than 2% squamous; for % of Cultures with Respective Amounts of Squamous Metaplasia: Severe: severe = more than 40% squamous
# Source text: N-(4-hydroxyphenyl)-all-trans-retinamide was compared with retinoic acid in an in vitro screening model for identifying retinoids having activity in preventing carcinogenesis in epithelial tissue. The experimental method, which is described in Experimental Lung Cancer:Intern'l Symp, 575-82, 1974, involves reversal of keratinization in tracheal organ culture.
# In brief summary, in the absence of retinoic acid or a synthetic retinoid having similar activity, the test organ culture of tracheal epithelium undergoes abnormal differentiation. Addition of small concentrations of retinoic acid (as low as 10^-9 M) will cause reversion to normal tracheal epithelium. Test compounds are compared in activity to retinoic acid or another active standard both as regards squamous metaplasia and keratin production, both of which are measures of abnormal development of the epithelial culture.
# In carrying out the tests reported in Table I, all tracheas were cultured for the first 3 days in medium without retinoid. At this time, some tracheas were collected, while the rest were cultured for a further week in medium containing either no retinoid, or retinoid added at the concentrations shown. These tracheas were collected on the 10th day of culture. Cultures were graded as to the percentage of their total epithelium showing squamous metaplasia on eight cross sections from the middle of each trachea. If more than 40% of the total epithelial length was squamous, it was graded as having severe squamous metaplasia; between 10-40% was graded as marked; between 2-10% was graded as mild; and less than 2% was graded as minimal.
# tracheal epithelium [3] = conditions: small concentrations, as low as; cited from earlier work
# [4] = test system: MNU-induced mammary cancer; assay: Inhibition of mammary carcinogenesis induced by N-methyl-N-nitrosourea (MNU), rat breast cancer; format: in vivo, Female Sprague-Dawley rats; conditions: Table II, 73 days
# [5] = MNU high dose (50 mg/kg), 328 mg/kg diet
# [6] = MNU high dose (50 mg/kg), 656 mg/kg diet
# [7] = MNU low dose (15 mg/kg), 328 mg/kg diet
# [8] = MNU low dose (15 mg/kg), 656 mg/kg diet
structure (smiles),measurement,setting,value
CC1=C(/C=C/C(C)=C/C=C/C(C)=C\C(=O)O)C(C)(C)CCC1 [13-cis-retinoic acid],potency in preventing chemical carcinogenesis relative to retinoic acid or the natural retinyl esters,chemical carcinogenesis,more potent in preventing chemical carcinogenesis
same,effectiveness against breast cancer in the rat model,breast cancer,has not been found to be particularly effective against breast cancer in the rat model
same,toxicity relative to retinoic acid or the natural retinyl esters,[1]; in vivo,considerably less toxic than retinoic acid or the natural retinyl esters
"CC1=C(/C=C/C(C)=C/C=C/C(C)=C/C(=O)O)C(C)(C)CCC1 [Retinoic Acid, retinoic acid, reference compound]",toxicity at high dosage levels,[1],too toxic at high dosage levels to be of practical value for cancer prevention in higher mammals
same,% of Cultures with Keratin and Keratohyaline Granules,tracheal epithelium [2]; 10^-8 M,0%
same,% of Cultures with Respective Amounts of Squamous Metaplasia: None,tracheal epithelium [2]; 10^-8 M,27%
same,% of Cultures with Respective Amounts of Squamous Metaplasia: Marked,tracheal epithelium [2]; 10^-8 M,0%
same,% of Cultures with Respective Amounts of Squamous Metaplasia: Mild,tracheal epithelium [2]; 10^-8 M,23%
same,% of Cultures with Respective Amounts of Squamous Metaplasia: Minimal,tracheal epithelium [2]; 10^-8 M,49%
same,% of Cultures with Respective Amounts of Squamous Metaplasia: Severe,tracheal epithelium [2]; 10^-8 M,0%
same,% of Cultures with Keratin and Keratohyaline Granules,tracheal epithelium [2]; 10^-9 M,3%
same,% of Cultures with Respective Amounts of Squamous Metaplasia: None,tracheal epithelium [2]; 10^-9 M,16%
same,% of Cultures with Respective Amounts of Squamous Metaplasia: Marked,tracheal epithelium [2]; 10^-9 M,12%
same,% of Cultures with Respective Amounts of Squamous Metaplasia: Mild,tracheal epithelium [2]; 10^-9 M,32%
same,% of Cultures with Respective Amounts of Squamous Metaplasia: Minimal,tracheal epithelium [2]; 10^-9 M,37%
same,% of Cultures with Respective Amounts of Squamous Metaplasia: Severe,tracheal epithelium [2]; 10^-9 M,2%
same,% of Cultures with Keratin and Keratohyaline Granules,tracheal epithelium [2]; 10^-10 M,32%
same,% of Cultures with Respective Amounts of Squamous Metaplasia: None,tracheal epithelium [2]; 10^-10 M,9%
same,% of Cultures with Respective Amounts of Squamous Metaplasia: Marked,tracheal epithelium [2]; 10^-10 M,17%
same,% of Cultures with Respective Amounts of Squamous Metaplasia: Mild,tracheal epithelium [2]; 10^-10 M,43%
same,% of Cultures with Respective Amounts of Squamous Metaplasia: Minimal,tracheal epithelium [2]; 10^-10 M,4%
same,% of Cultures with Respective Amounts of Squamous Metaplasia: Severe,tracheal epithelium [2]; 10^-10 M,28%
same,lowest concentration causing reversion to normal tracheal epithelium,tracheal epithelium [3],10^-9 M
"CC(=O)OC/C=C(C)/C=C/C=C(C)/C=C/C1=C(C)CCCC1(C)C [Retinyl Acetate, retinyl acetate, reference compound]",toxicity at high dosage levels,[1],too toxic at high dosage levels to be of practical value for cancer prevention in higher mammals
same,Mammary Tumor Incidence,[4]; [5],5/19
same,Mammary Tumor Incidence (%),[4]; [5],26%
same,Mammary Tumor Incidence,[4]; [6],4/17
same,Mammary Tumor Incidence (%),[4]; [6],24%
same,Mammary Tumor Incidence,[4]; [7],0/39
same,Mammary Tumor Incidence (%),[4]; [7],0%
same,Mammary Tumor Incidence,[4]; [8],0/40
same,Mammary Tumor Incidence (%),[4]; [8],0%
same,Mammary Tumor Incidence,"[4]; saline, 328 mg/kg diet",0/10
same,Mammary Tumor Incidence (%),"[4]; saline, 328 mg/kg diet",0%
same,Mammary Tumor Incidence,"[4]; saline, 656 mg/kg diet",0/10
same,Mammary Tumor Incidence (%),"[4]; saline, 656 mg/kg diet",0%
CCCCCCCCCCCCCCCC(=O)OC/C=C(C)/C=C/C=C(C)/C=C/C1=C(C)CCCC1(C)C [retinyl palmitate],toxicity at high dosage levels,[1],too toxic at high dosage levels to be of practical value for cancer prevention in higher mammals
